In article PMC8370248, “Key Metabolic Enzymes Involved in Remdesivir Activation in Human Lung Cells” (Antimicrobial Agents and Chemotherapy, 2021):
Read-outs that look alike come from different tables or passages of the source.

Assays:
CatA = target: T1, CatA (Homo sapiens, UniProt P10619); assay: CatA-catalyzed hydrolysis of RDV and control (substrate disappearance, LC-MS)
T1 sequence (P10619 29-326 limits assumed): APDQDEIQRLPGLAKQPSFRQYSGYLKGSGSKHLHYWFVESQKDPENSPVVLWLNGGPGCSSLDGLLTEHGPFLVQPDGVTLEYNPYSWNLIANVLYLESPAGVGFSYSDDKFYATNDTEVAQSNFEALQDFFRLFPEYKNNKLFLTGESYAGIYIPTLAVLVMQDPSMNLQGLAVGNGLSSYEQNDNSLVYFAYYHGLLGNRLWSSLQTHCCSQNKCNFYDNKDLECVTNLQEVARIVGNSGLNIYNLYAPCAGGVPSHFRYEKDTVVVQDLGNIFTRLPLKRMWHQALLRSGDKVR
T1 sequence (P10619 327-480 limits assumed): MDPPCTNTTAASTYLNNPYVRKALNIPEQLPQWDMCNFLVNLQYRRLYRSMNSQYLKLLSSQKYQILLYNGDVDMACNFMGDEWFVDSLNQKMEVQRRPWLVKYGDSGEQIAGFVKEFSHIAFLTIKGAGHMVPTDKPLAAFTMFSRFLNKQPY
Description: (§1) The catalytic activity of carboxylesterase 1b (CES1b), carboxylesterase 1c (CES1c), CES2, and CatA toward RDV hydrolysis was measured using protein-enriched subcellular fraction (CES isozymes) or recombinant proteins (CatA). The reaction rates were determined by monitoring the disappearance of RDV using a liquid chromatography-mass spectrometry (LC-MS) method.
Following protein precipitation and centrifugation, 150 μl of supernatant was dried down and reconstituted with 250 μl water. […] Three experiments were conducted with two replicates in each experiment, and data are reported as averages from the three experiments.
(§2) In all studies apart from those with CES1 and CatA with enzyme inhibitors, samples (10-μl aliquots) were injected with a Thermo Scientific autosampler. The LC instrumentation consisted of a Thermo Scientific Dionex UltiMate 3000 RS pump, and the LC column was a Waters Acquity UPLC BEH C18 (1.7 μm particle size, 2.1 by 50 mm). Mobile phases A and B were water 99.9% (vol/vol) containing 0.1% (vol/vol) formic acid, and acetonitrile 99.9% (vol/vol) containing 0.1% (vol/vol) formic acid, respectively, pumped at 0.2 ml/minute. Elution was achieved by a series of linear gradients over 2.33 min followed by reequilibration for 2.57 min. The MS instrument was a Thermo Q Exactive Hybrid Quadrupole-Orbitrap operating in positive or negative ionization mode as appropriate. This was calibrated on a weekly basis, and data were processed with GMSU 8.4.66 software by Gubbs Inc. (Alpharetta, GA). Mass tolerance of 5 ppm was used.

CES1c = target: T2, CES1c (Homo sapiens, UniProt P23141); assay: CES1c-catalyzed hydrolysis of RDV and control (substrate disappearance, LC-MS); format: in vitro ADME
T2 construct: purchased Corning Incorporated (Corning, NY); host or cells: baculovirus-infected insect cells (microsomal fraction, Supersomes)
T2 sequence (P23141 18-566 isoform P23141-3 limits assumed): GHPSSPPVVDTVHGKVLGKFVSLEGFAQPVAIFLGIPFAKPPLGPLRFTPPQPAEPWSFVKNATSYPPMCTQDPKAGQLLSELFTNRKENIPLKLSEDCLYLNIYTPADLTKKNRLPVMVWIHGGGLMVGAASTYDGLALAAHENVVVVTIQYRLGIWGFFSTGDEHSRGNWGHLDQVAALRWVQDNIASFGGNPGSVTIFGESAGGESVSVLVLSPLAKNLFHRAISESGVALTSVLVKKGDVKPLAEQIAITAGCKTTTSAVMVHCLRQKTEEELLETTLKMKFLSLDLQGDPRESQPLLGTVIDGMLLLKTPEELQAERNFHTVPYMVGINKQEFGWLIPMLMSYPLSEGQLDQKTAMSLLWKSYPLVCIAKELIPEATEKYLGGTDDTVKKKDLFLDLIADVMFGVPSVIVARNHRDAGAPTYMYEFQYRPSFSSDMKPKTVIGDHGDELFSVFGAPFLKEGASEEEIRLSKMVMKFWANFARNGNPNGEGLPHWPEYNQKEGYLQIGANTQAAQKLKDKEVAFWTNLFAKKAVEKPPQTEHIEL
Description: as §1
(§3) RDV or positive-control substrates (oseltamivir for CES1 or procaine for CES2) were incubated with individual Supersome preparations (final CES concentration, 1.5 mg/ml) in 0.1 M potassium phosphate buffer (pH 7.4) at 37°C. Substrates were added to a final concentration of 1 μM to initiate the reaction. The final incubation volume was 250 μl. Aliquots were removed after incubation for 0, 10, 30, 60, and 120 min. The reactions were stopped by the addition of the quench solution containing the LC-MS internal standard (IS) (labetalol). Following protein precipitation and centrifugation, 150 μl of supernatant was dried down and reconstituted with 250 μl water. All samples were analyzed by an LC-MS, and the analyte/internal standard peak area ratio (PAR) values were used for quantification. Disappearance of RDV or positive-control compounds was monitored over the incubation time period. Three experiments were conducted with two replicates in each experiment, and data are reported as averages from the three experiments.
as §2

CES2 = target: T3, CES2 (Homo sapiens, UniProt O00748); assay: CES2-catalyzed hydrolysis of RDV and control (substrate disappearance, LC-MS); format: in vitro ADME; conditions: for half-life at 1 μM: human, CES2 Supersomes (protein-enriched subcellular fraction)
T3 construct: purchased Corning Incorporated (Corning, NY); host or cells: baculovirus-infected insect cells (microsomal fraction, Supersomes)
T3 sequence (O00748 27-559): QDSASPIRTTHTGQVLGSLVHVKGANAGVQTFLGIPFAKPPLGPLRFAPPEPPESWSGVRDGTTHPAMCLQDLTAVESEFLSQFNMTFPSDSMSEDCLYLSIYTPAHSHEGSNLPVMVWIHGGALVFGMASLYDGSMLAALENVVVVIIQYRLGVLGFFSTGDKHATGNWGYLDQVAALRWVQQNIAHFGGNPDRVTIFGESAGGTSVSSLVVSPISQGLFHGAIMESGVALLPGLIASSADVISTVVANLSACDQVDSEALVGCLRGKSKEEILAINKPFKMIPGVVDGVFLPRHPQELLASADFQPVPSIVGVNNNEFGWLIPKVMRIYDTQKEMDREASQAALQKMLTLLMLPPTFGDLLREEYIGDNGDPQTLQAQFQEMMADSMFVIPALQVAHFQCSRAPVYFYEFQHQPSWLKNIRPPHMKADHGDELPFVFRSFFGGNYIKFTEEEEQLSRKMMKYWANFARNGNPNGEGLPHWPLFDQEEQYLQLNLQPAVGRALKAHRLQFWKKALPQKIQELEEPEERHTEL
Description: as §1, §3, §2

CCC(CC)COC(=O)[C@H](C)N[P@](=O)(OC[C@H]1O[C@@](C#N)(c2ccc3c(N)ncnn23)[C@H](O)[C@@H]1O)Oc1ccccc1 [RDV, Remdesivir]
Activity for amidate ester cleavage, CatA (CatA; 1 μM substrate, 5 nM CatA, pH 6.5, 37°C): 74 ± 32 nmol/min/mg
CatA hydrolysis rate relative to TAF (CatA; fold lower than hydrolysis rate of TAF): 3.4 fold
half-life at 1 μM (CatA; human, recombinant CatA (activated with CatL), pH 6.5): 43 min
half-life at 1 μM (CES1c; human, CES1c Supersomes (protein-enriched subcellular fraction), 1 μM substrate, CES 1.5 mg/ml, pH 7.4, 37°C, read-out: t1/2, CES1c (converted)): 7.7 min
CES1c hydrolysis rate relative to oseltamivir (CES1c; times faster than positive control oseltamivir): 4 times
Activity for amidate ester cleavage, CES2 (CES2; 1 μM substrate, CES 1.5 mg/ml, pH 7.4, 37°C): 2.8 ± 2.6 × 10^−4 nmol/min/mg
half-life at 1 μM (CES2; pH 7.4, 1 μM substrate, CES 1.5 mg/ml, pH 7.4, 37°C, read-out: t1/2, CES2 (converted)): > 1000 min
half-life at 1 μM (CES2; pH 7.4, as stated in text, read-out: half-life, CES2): > 960 min
